Results: ChEMBL document CHEMBL5303764, “Data for DCP probe BI-3812” (2023)

Experiments:
[1] = molecular target: D(3) dopamine receptor (Homo sapiens) (UniProt P35462); conditions: Compound concentration 10.0 uM
[2] = molecular target: 5-hydroxytryptamine receptor 2B (Homo sapiens) (UniProt P41595); conditions: Compound concentration 10.0 uM
[3] = molecular target: 3',5'-cyclic-AMP phosphodiesterase 4D (Homo sapiens) (UniProt Q08499); experiment: PDE4D2 Eurofins SafetyScreen44 (BI); conditions: Compound concentration 10.0 uM
[4] = molecular target: Serine/threonine-protein kinase TBK1 (Homo sapiens) (UniProt Q9UHD2); experiment: TBK1 Invitrogen Lab (UK) kinase screen (BI); conditions: Compound concentration 1.0 uM
Chain of Serine/threonine-protein kinase TBK1 (Homo sapiens) (Q9UHD2 whole entry): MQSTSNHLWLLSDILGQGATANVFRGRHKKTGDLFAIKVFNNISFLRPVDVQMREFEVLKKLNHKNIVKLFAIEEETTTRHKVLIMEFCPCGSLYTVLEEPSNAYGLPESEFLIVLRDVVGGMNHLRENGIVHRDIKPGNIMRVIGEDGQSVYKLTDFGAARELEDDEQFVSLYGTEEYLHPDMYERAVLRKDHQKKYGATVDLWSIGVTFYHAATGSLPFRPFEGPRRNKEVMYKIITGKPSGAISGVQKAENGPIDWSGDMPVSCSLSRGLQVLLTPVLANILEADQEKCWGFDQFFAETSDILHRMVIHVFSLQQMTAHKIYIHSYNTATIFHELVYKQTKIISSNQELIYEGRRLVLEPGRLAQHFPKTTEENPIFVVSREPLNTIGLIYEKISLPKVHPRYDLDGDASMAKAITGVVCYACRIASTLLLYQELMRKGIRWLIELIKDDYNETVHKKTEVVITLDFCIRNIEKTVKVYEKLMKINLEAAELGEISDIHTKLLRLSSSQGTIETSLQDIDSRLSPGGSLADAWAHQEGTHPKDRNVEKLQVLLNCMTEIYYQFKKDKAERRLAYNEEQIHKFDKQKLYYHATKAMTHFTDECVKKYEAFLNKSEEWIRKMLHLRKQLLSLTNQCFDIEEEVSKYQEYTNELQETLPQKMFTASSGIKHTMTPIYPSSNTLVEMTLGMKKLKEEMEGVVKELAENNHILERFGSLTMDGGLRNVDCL

[5] = molecular target: Serine/threonine-protein kinase PLK1 (Homo sapiens) (UniProt P53350); experiment: PLK1 Invitrogen Lab (UK) kinase screen (BI); conditions: Compound concentration 1.0 uM
[6] = molecular target: Inhibitor of nuclear factor kappa-B kinase subunit beta (Homo sapiens) (UniProt O14920); experiment: IKBKB Invitrogen Lab (UK) kinase screen (BI); conditions: Compound concentration 1.0 uM
Chain of Inhibitor of nuclear factor kappa-B kinase subunit beta (Homo sapiens) (O14920 whole entry): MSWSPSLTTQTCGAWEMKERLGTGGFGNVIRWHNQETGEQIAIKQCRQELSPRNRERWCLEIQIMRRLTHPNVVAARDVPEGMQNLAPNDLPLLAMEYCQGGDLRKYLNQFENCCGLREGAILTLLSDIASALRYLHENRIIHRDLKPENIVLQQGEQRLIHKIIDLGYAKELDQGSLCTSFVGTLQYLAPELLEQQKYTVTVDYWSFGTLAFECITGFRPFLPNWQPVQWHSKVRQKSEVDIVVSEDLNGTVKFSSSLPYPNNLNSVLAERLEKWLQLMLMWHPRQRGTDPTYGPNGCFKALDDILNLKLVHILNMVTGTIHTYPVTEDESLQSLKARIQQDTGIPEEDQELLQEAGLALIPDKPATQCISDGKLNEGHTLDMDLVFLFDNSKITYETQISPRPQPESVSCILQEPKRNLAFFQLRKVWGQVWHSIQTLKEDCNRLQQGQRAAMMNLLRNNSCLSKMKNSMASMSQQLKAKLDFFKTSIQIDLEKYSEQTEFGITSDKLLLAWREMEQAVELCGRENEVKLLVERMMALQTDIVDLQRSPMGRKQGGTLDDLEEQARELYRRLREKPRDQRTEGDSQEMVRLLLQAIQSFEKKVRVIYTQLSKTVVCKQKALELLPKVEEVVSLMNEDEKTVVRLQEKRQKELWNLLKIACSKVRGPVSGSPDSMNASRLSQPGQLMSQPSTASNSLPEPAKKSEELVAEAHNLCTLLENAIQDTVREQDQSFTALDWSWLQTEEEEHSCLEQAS

[7] = molecular target: Cholecystokinin receptor type A (Homo sapiens) (UniProt P32238); experiment: CCKA/H Eurofins SafetyScreen44 (BI); conditions: Compound concentration 10.0 uM
[8] = molecular target: B-cell CLL/lymphoma 6 member B protein (Homo sapiens, UniProt Q8N143); experiment: SPR (BCL6B), Ontario institute for cancer research
[9] = molecular target: Vasopressin V1a receptor (Homo sapiens) (UniProt P37288); experiment: V1A/HUM Eurofins SafetyScreen44 (BI); conditions: Compound concentration 10.0 uM
Chain of Vasopressin V1a receptor (Homo sapiens) (P37288 whole entry, looked up): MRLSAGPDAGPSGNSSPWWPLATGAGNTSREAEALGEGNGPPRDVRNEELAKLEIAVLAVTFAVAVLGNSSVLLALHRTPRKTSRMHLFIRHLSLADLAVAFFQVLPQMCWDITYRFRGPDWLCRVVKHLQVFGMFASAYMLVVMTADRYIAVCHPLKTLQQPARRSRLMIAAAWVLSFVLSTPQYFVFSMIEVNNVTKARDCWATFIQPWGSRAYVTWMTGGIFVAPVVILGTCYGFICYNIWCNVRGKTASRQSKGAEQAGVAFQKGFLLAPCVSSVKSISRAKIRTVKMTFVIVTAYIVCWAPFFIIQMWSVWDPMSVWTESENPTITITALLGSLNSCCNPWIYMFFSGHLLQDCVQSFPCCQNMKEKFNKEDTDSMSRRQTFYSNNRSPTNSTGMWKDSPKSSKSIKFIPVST

[10] = molecular target: GABA-A receptor; anion channel (Rattus norvegicus) (UniProt O09028+P15431+P18506+P18508+P19969+P20236+P23574+P23576+P28471+P28473+P30191+P62813+P63079+P63138+Q91ZM7+Q9ES14); experiment: BZD/CENTR/R Eurofins SafetyScreen44 (BI); format: protein-complex assay; conditions: Compound concentration 10.0 uM
[11] = molecular target: Rho-associated protein kinase 2 (Homo sapiens) (UniProt O75116); experiment: ROCK2 Invitrogen Lab (UK) kinase screen (BI); conditions: Compound concentration 1.0 uM
[12] = molecular target: Ribosomal protein S6 kinase alpha-4 (Homo sapiens) (UniProt O75676); experiment: RPS6KA4 Invitrogen Lab (UK) kinase screen (BI); conditions: Compound concentration 1.0 uM
[13] = molecular target: Angiotensin-converting enzyme (Homo sapiens) (UniProt P12821); experiment: ACE(HU_AMTCH400) Eurofins SafetyScreen44 (BI); conditions: Compound concentration 10.0 uM
Chain of Angiotensin-converting enzyme (Homo sapiens) (P12821 whole entry): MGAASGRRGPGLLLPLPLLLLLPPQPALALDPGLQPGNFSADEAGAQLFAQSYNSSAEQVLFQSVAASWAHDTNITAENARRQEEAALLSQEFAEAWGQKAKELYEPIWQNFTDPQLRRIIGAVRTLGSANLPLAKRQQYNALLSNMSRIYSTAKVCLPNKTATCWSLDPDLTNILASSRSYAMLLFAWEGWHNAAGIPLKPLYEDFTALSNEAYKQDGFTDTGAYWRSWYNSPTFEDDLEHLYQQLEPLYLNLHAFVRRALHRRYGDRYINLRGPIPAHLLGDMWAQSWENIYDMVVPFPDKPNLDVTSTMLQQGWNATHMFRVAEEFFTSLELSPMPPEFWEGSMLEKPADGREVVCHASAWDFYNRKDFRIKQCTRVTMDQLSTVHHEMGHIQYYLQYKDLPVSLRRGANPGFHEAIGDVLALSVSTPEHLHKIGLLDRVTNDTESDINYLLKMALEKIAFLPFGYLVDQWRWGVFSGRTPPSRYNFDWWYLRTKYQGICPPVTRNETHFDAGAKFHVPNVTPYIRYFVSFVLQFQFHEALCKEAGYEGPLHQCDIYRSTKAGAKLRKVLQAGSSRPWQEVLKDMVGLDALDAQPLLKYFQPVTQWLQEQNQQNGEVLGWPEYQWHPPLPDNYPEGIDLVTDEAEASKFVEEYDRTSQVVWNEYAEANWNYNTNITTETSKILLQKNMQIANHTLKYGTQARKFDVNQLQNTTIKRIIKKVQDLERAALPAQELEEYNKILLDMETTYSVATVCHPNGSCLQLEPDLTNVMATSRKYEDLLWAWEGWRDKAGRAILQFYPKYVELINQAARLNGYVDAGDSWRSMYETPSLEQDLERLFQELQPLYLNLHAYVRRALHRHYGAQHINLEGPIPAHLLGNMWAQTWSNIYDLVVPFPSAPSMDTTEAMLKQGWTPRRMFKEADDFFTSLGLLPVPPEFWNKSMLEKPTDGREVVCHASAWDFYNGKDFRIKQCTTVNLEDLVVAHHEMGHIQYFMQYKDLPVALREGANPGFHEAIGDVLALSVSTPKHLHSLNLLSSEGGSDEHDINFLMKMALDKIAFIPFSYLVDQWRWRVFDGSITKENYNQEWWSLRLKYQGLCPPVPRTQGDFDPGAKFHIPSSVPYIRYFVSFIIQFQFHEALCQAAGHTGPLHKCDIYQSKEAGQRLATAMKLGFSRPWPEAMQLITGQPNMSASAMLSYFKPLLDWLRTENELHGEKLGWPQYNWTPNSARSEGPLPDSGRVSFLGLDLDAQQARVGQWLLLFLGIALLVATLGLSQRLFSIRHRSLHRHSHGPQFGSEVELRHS

[14] = molecular target: 5-hydroxytryptamine receptor 1D (Homo sapiens) (UniProt P28221); conditions: Compound concentration 10.0 uM
Chain of 5-hydroxytryptamine receptor 1D (Homo sapiens) (P28221 whole entry): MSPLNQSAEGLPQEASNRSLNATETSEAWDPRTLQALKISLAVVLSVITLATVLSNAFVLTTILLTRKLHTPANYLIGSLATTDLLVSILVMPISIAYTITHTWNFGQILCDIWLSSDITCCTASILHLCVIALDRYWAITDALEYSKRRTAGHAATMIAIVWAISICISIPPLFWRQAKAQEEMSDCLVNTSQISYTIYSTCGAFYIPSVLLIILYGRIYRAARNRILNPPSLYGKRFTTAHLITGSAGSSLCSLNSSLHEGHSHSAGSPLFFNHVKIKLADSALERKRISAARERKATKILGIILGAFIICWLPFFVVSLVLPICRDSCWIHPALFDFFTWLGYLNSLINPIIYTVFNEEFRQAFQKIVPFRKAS

[15] = molecular target: BDNF/NT-3 growth factors receptor (Homo sapiens) (UniProt Q16620); experiment: NTRK2 Invitrogen Lab (UK) kinase screen (BI); conditions: Compound concentration 1.0 uM
[16] = molecular target: Alpha-1B adrenergic receptor (Homo sapiens) (UniProt P35368); conditions: Compound concentration 10.0 uM
Chain of Alpha-1B adrenergic receptor (Homo sapiens) (P35368 whole entry): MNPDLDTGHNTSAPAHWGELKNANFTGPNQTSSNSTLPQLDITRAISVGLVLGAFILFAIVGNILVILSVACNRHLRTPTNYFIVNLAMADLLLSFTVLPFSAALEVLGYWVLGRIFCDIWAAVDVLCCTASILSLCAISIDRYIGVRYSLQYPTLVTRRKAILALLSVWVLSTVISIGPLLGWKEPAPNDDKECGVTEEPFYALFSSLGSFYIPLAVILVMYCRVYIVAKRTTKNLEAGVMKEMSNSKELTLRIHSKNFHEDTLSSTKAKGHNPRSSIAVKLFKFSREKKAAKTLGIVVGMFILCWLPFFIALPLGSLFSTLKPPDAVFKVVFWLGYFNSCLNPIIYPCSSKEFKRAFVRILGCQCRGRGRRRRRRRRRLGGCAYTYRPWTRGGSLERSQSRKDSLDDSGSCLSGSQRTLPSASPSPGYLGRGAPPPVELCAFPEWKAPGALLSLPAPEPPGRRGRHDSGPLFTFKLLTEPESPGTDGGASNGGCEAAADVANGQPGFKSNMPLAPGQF

[17] = molecular target: Ephrin type-A receptor 2 (Homo sapiens) (UniProt P29317); experiment: EPHA2 Invitrogen Lab (UK) kinase screen (BI); conditions: Compound concentration 1.0 uM

Chain of D(3) dopamine receptor (Homo sapiens) (P35462 whole entry): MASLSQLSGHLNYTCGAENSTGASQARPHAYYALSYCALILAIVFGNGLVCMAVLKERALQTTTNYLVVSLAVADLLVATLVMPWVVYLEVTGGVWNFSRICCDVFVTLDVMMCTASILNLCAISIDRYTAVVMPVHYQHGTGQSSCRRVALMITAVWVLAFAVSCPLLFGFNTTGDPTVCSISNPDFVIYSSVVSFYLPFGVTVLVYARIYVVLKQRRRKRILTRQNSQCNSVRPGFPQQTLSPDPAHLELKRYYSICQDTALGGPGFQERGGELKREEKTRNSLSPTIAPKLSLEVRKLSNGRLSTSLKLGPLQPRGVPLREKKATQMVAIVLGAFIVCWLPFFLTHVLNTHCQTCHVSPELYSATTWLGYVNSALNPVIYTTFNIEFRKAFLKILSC
Chain of 5-hydroxytryptamine receptor 2B (Homo sapiens) (P41595 whole entry): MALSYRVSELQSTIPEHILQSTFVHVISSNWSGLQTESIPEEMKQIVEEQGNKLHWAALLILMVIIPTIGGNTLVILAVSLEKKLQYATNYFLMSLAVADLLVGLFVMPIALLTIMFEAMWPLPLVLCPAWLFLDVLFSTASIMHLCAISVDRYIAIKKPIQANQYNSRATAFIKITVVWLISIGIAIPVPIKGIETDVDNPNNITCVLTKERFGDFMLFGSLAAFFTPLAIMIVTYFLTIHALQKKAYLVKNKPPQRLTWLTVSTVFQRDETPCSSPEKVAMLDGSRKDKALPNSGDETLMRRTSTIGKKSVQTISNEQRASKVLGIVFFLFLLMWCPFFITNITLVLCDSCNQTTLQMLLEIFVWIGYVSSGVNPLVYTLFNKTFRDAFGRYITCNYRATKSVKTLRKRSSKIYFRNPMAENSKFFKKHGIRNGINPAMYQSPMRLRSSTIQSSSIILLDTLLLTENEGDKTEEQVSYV

Which results are given for CNC(=O)COc1cc2cc(Nc3nc(N4CCC(C(=O)N(C)C)CC4)ncc3Cl)cc(OC)c2n(C)c1=O?
inhibition [1]: 14.6%; inhibition [2]: -2.05%; residual activity [3]: 121%; residual activity [4]: 97%; residual activity [5]: 100%; residual activity [6]: 96%; residual activity [7]: 93%; Kd [8]: 3.68 µM (not active); residual activity [9]: 101%; residual activity [10]: 125%; residual activity [11]: 97%; residual activity [12]: 93%; residual activity [13]: 96%; inhibition [14]: 13.2%; residual activity [15]: 88%; inhibition [16]: 9.69%; residual activity [17]: 99%
